Measurements as given in BindingDB's records for doi:10.1021/cb5001586 (The Broad Institute , Cambridge, Massachusetts 02142, …, 2014).

Target: Acyl-homoserine lactone acylase PvdQ [A190E,F674L] (Pseudomonas aeruginosa, UniProt Q9I194, A190E/F674L)
Test: PvdQ IC50 Assay
Experimental: The assay was performed with nine compound concentrations that ranged from 3 nM to 19.5 µM with PvdQ concentration of 20 nM. The positive control, isopropyl dodecylfluorophosphonate (IDFP), was added in 24 selective wells to a final concentration of 200 µM. The assay plates were initially read at time = 0 and then incubated for 60 min at RT. The plates were read again at time = 60 min.

Sequence of Acyl-homoserine lactone acylase PvdQ [A190E,F674L] (Q9I194 whole entry, looked up, stated change not applied): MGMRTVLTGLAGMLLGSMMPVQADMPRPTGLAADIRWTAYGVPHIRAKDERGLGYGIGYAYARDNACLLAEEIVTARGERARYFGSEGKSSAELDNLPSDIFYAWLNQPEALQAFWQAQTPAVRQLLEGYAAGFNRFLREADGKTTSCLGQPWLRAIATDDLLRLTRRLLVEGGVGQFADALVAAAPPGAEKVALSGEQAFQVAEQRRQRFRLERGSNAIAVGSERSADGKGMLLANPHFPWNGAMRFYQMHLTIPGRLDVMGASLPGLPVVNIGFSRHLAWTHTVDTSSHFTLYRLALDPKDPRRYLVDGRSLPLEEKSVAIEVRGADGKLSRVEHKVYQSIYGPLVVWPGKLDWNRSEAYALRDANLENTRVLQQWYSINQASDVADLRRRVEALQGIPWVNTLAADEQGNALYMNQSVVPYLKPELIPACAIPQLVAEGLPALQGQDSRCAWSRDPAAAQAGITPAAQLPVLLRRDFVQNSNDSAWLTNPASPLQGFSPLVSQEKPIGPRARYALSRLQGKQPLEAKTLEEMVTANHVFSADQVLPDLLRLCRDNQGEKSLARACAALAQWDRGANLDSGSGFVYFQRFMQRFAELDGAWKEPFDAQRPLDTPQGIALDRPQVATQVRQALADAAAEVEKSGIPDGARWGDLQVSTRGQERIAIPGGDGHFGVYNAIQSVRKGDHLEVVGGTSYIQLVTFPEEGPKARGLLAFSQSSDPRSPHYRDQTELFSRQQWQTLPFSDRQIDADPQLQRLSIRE

Structure (SMILES)	IC50 [nM]
COCCC(C#N)c1ccc(F)cc1 (stereo not given) [2-(4-Fluorophenyl)-4-methoxybutanenitrile (47)]	290
CC(C#N)(c1ccc(Cl)cc1)c1ccc(C(F)(F)F)cn1 (stereo not given) [2-(4-Chlorophenyl)-2-(5-(trifluoromethyl)pyridin-2-yl)propanenitrile (54)]	1100
N#CC(c1ccc(F)cc1)c1ccc(C(F)(F)F)c(Cl)n1 (stereo not given) [2-(6-Chloro-5-(trifluoromethyl)pyridin-2-yl)-2-(4-fluorophenyl)acetonitrile (27)]	740
N#CC(c1ccc(F)cc1)c1cccc(C(F)(F)F)n1 (stereo not given) [2-(4-Fluorophenyl)-2-(6-(trifluoromethyl)pyridin-2-yl) acetonitrile (4)]	20
N#CC(c1ccc(Cl)cc1)c1ccc(Cl)cn1 (stereo not given) [2-(4-Chlorophenyl)-2-(5-chloropyridin-2-yl) acetonitrile (14)]	130
N#CC(c1ccc(C(F)(F)F)cc1)c1cccc(Cl)n1 (stereo not given) [2-(6-Chloropyridin-2-yl)-2-(4-(trifluoromethyl)phenyl)acetonitrile (10)]	390
Cc1ccc(C(C#N)c2ccc(Cl)cc2)nc1C#N (stereo not given) [6-((4-Chlorophenyl)(cyano)methyl)-3-methyl picolinonitrile (22)]	180
Clc1ccc(C(c2cccc(Cl)n2)c2nnn[nH]2)cc1 (stereo not given) [2-Chloro-6-((4-chlorophenyl)(1H-tetrazol-5-yl)-methyl)pyridine (52)]	3400
CCCCC(c1ccc(Cl)cc1)c1nnn[nH]1 (stereo not given) [5-(1-(4-Chlorophenyl)pentyl)-1H-tetrazole (53)]	6700
N#CC(CC1CC1)c1ccc(Cl)cc1 (stereo not given) [2-(4-Chlorophenyl)-3-cyclopropylpropanenitrile (40)]	540
N#CC(c1ccc(C(F)(F)F)cc1)c1ccc(C(F)(F)F)c(Cl)n1 (stereo not given) [2-(6-Chloro-5-(trifluoromethyl)pyridin-2-yl)-2-(4-(trifluoromethyl)phenyl)acetonitrile (28)]	2300
N#CC(c1ccc(C(F)(F)F)cc1)c1cccc(C(F)(F)F)n1 (stereo not given) [2-(4-(Trifluoromethyl)phenyl)-2-(6-(trifluoromethyl)pyridin-2-yl)acetonitrile (29)]	140
N#CC(c1ccc(Cl)cc1)c1ccccn1 (stereo not given) [2-(4-Chlorophenyl)-2-(pyridin-2-yl)acetonitrile (24)]	270
N#CC(c1ccc(Cl)cc1)c1ccc(C(F)(F)F)c(Cl)n1 (stereo not given) [2-(6-Chloro-5-(trifluoromethyl)pyridin-2-yl)-2-(4-chlorophenyl)acetonitrile (21)]	620
N#CC(c1ccc(C(F)(F)F)c(Cl)n1)c1ccc(Cl)cc1Cl (stereo not given) [2-(6-Chloro-5-(trifluoromethyl)pyridin-2-yl)-2-(2,4-dichlorophenyl)acetonitrile (36)]	970
N#CC(c1ccc(C(F)(F)F)c(Cl)n1)c1ccc(Cl)cc1F (stereo not given) [2-(4-Chloro-2-fluorophenyl)-2-(6-chloro-5-(trifluoro-methyl)pyridin-2-yl)acetonitrile (32)]	630
CCCCC(C#N)c1ccc(C(F)(F)F)cc1 (stereo not given) [2-(4-(Trifluoromethyl)phenyl)hexanenitrile (48)]	> 10000
N#Cc1ccc(C(C#N)c2ccc(Cl)cc2Cl)nc1 (stereo not given) [6-(Cyano(2,4-dichlorophenyl)methyl)nicotinonitrile (34)]	1800
N#CC(c1ccc(Cl)cc1Cl)c1ncccc1Cl (stereo not given) [2-(3-Chloropyridin-2-yl)-2-(2,4-dichlorophenyl) acetonitrile (35)]	210
N#CC(c1cccc(Cl)n1)c1ccc(Cl)cc1F (stereo not given) [2-(4-Chloro-2-fluorophenyl)-2-(6-chloropyridin-2-yl) acetonitrile (13)]	60

Structure (SMILES)	IC50 [nM]
N#Cc1cccc(C(C#N)c2ccc(F)cc2)n1 (stereo not given) [6-(Cyano(4-fluorophenyl)methyl)picolinonitrile (25)]	130
CC(C)CC(C#N)c1ccc(Cl)cc1 (stereo not given) [2-(4-Chlorophenyl)-4-methylpentanenitrile (39)]	290
N#CC(c1ccc(Cl)cc1)c1cccc(C(F)(F)F)n1 (stereo not given) [2-(4-Chlorophenyl)-2-(6-(trifluoromethyl)pyridin-2-yl)acetonitrile (16)]	10
CCCCC(C#N)c1ccc(Cl)cc1 (stereo not given) [2-(4-Chlorophenyl)hexanenitrile (38)]	1400
N#Cc1cccc(C(C#N)c2ccc(Cl)cc2)n1 (stereo not given) [6-((4-Chlorophenyl)(cyano)methyl)picolinonitrile (17)]	180
CCCCC(C#N)c1ccc(F)cc1 (stereo not given) [2-(4-Fluorophenyl)hexanenitrile (46)]	320
CCCCC(C#N)c1ccccn1 (stereo not given) [2-(Pyridin-2-yl)hexanenitrile (51)]	8400
N#Cc1cccc(C(C#N)c2ccc(Cl)cc2Cl)n1 (stereo not given) [6-(Cyano(2,4-dichlorophenyl)methyl)picolinonitrile (33)]	290
CCCC(C#N)c1ccc(Cl)cc1 (stereo not given) [2-(4-Chlorophenyl)pentanenitrile (37)]	5900
COCCC(C#N)c1ccc(Cl)cc1 (stereo not given) [2-(4-Chlorophenyl)-4-methoxybutanenitrile (41)]	4800
N#CC(c1ccc(Cl)cc1)c1ncccc1Cl (stereo not given) [2-(4-Chlorophenyl)-2-(3-chloropyridin-2-yl) acetonitrile (15)]	10
N#CC(c1ccc(Cl)cc1)c1ccc(C(F)(F)F)cn1 (stereo not given) [2-(4-Chlorophenyl)-2-(5-(trifluoromethyl)pyridin-2-yl)acetonitrile (20)]	2400
N#CC(c1cccc(Cl)n1)c1ccc(Cl)cc1Cl (stereo not given) [2-(6-Chloropyridin-2-yl)-2-(2,4-dichlorophenyl) acetonitrile (12)]	250
N#CC(c1cccc(Cl)n1)c1ccccc1OC(F)(F)F (stereo not given) [2-(6-Chloropyridin-2-yl)-2-(2-(trifluoromethoxy)-phenyl)acetonitrile (11)]	1700
N#CC(c1ccc(C(F)(F)F)cn1)c1ccc(Cl)cc1F (stereo not given) [2-(4-Chloro-2-fluorophenyl)-2-(5-(trifluoromethyl)-pyridin-2-yl)acetonitrile (31)]	10
N#Cc1ccc(C(C#N)c2ccc(Cl)cc2)nc1 (stereo not given) [6-((4-Chlorophenyl)(cyano)methyl)nicotinonitrile (23)]	2500
CCCCC(C#N)c1ccc(Cl)cn1 (stereo not given) [2-(5-Chloropyridin-2-yl)hexanenitrile (49)]	3800
N#CC1c2ccc(Cl)cc2CCc2cccnc21 (stereo not given) [8-Chloro-6,11-dihydro-5H-benzo[5,6]cyclohepta[1,2-b]pyridine-11-carbonitrile (55)]	9100
N#Cc1cccc(C(C#N)c2ccc(Cl)cc2F)n1 (stereo not given) [6-((4-Chloro-2-fluorophenyl)(cyano)methyl) picolinonitrile (30)]	110
COCCOCCC(C#N)c1ccc(Cl)cc1 (stereo not given) [2-(4-Chlorophenyl)-4-(2-methoxyethoxy)butanenitrile (42)]	4700
